Read-outs that look alike come from different tables or passages of the source.
Tests used:
[1] = target: T1, SARS-CoV-2 3CL^pro (Severe acute respiratory syndrome coronavirus 2, UniProt P0DTD1); design: method as in PMID 38277124
[2] = target: T1, SARS-CoV-2 3CL^pro; test: biochemical; format: biochemical; details: for inhibition at 100 µM: read-out: SARS-CoV-2 3CL^pro Inhibition 100 µM (%)
[3] = tested on: 3CL^pro; design: method as in PMID 32272481; details: read-out: IC50 against 3CL^pro; cited from earlier work
[4] = 100 µM compound; values marked footnote 3; cited from earlier work
[5] = read-out: SARS-CoV-2 3CL^pro Inhibition IC50; values marked footnote 3; cited from earlier work
[6] = values marked footnote 3; read-out: SARS-CoV-2 3CL^pro Inhibition IC50; cited from earlier work
[7] = FRET assay, read-out: SARS-CoV-2 3CL^pro Inhibition IC50

For `O=c1cc(-c2ccccc2)oc2cc(O)c(O)c(O)c12` [Compound 1, baicalein, reference compound], the “SARS-CoV-2 3CL^pro Inhibition 100 µM (%)” value [1, 4] is given as 62.95 ± 3.10 ^3%.

In the case of `COc1cc(O)c2c(c1)O[C@H](c1ccccc1)CC2=O` [Compound 6, pinostrobin], the “SARS-CoV-2 3CL^pro Inhibition 100 µM (%)” value [1, 4] is listed as 26.44 ± 2.32 ^3% and the IC50 [1, 5] is listed as > 200 µM.

For `O=C1C[C@@H](c2ccccc2)Oc2cc(O)cc(O)c21` [Compound 7, pinocembrin], the “SARS-CoV-2 3CL^pro Inhibition 100 µM (%)” value [1, 4] is listed as 27.18 ± 2.20 ^3% and the IC50 [1, 5] is listed as > 200 µM.

In the case of `COc1cc(O)cc(O)c1C(=O)/C=C/c1ccccc1` [Compound 8, cardamonin], the “SARS-CoV-2 3CL^pro Inhibition 100 µM (%)” value [1, 4] is listed as 85.60 ± 2.44 ^3% and the IC50 [1, 5] is listed as 57.4 µM.

In the case of `COc1c(C)c(O)c(C)c(O)c1C(=O)/C=C/c1ccccc1` [Compound 9, dimethylcardamonin], the “SARS-CoV-2 3CL^pro Inhibition 100 µM (%)” value [1, 4] is listed as 84.59 ± 0.84 ^3% and the IC50 [1, 6] is listed as 27.5 µM.

For `COc1cc(O)c2c(=O)cc(-c3ccccc3)oc2c1` [Compound 10, tectochrysin], the “SARS-CoV-2 3CL^pro Inhibition 100 µM (%)” value [1, 4] is given as 86.39 ± 0.19 ^3% and the IC50 [1, 5] is given as 24 µM.

In the case of `O=c1cc(-c2ccccc2)oc2cc(O)cc(O)c12` [Compound 11, chrysin], the “SARS-CoV-2 3CL^pro Inhibition 100 µM (%)” value [1, 4] is listed as 87.73 ± 0.66 ^3% and the IC50 [1, 6] is listed as 32.8 µM.

With `C=CC(=O)Oc1cc(O)c2c(c1)O[C@H](c1ccccc1)CC2=O` [Compound 13, 7-O-acryloylpinocembrin] the inhibition at 100 µM [2] was 79.2 ± 1.52%.

Compound `C=CC(=O)Oc1cc(OC(=O)C=C)c2c(c1)O[C@H](c1ccccc1)CC2=O` [Compound 14, 5,7-O-diacryloylpinocembrin] has an inhibition at 100 µM [2] of 76.2 ± 0.97%.

`C=CC(=O)Oc1cc(O)c(C(=O)/C=C/c2ccccc2)c(OC)c1` [Compound 15, 4′-O-acryloylcardamonin] gave an inhibition at 100 µM [2] of 66.6 ± 2.05%.

`C=CC(=O)Oc1c(C)c(O)c(C(=O)/C=C/c2ccccc2)c(OC)c1C` [Compound 16, 4′-O-acryloyl-DMC] gave an inhibition at 100 µM [2] of 52.9 ± 1.17%.

`C=CC(=O)Oc1cc(OC)c(C(=O)/C=C/c2ccccc2)c(OC(=O)C=C)c1` [Compound 17, 2′,4′-O-diacryloylcardamonin] showed an inhibition at 100 µM [2] of 76.8 ± 4.85%.

`C=CC(=O)Oc1c(C)c(OC)c(C(=O)/C=C/c2ccccc2)c(OC(=O)C=C)c1C` [Compound 18, 2′,4′-O-diacryloyl-DMC] showed an inhibition at 100 µM [2] of 68 ± 3.77%.

With `C=CC(=O)Oc1cc(OC)cc2oc(-c3ccccc3)cc(=O)c12` [Compound 19, 5-O-acryloyltectochrysin] the inhibition at 100 µM ([2]; 100 µM compound, FRET assay) was 37.2 ± 2.09% and the IC50 [2, 7] was > 100 µM.

For `C=CC(=O)Oc1cc(O)c2c(=O)cc(-c3ccccc3)oc2c1` [Compound 20, 7-O-acryloylchrysin], the inhibition at 100 µM [2] was 84.01 ± 0.82%.

In the case of `C=CC(=O)Oc1cc(OC(=O)C=C)c2c(=O)cc(-c3ccccc3)oc2c1` [Compound 21, 5,7-O-diacryloylchrysin], the inhibition at 100 µM ([2]; 100 µM compound, FRET assay) is reported as 32.3 ± 4.83% and the IC50 [2, 7] is reported as > 100 µM.

For `COc1cc(O)c2c(c1[N+](=O)[O-])O[C@H](c1ccccc1)CC2=O` [Compound 22, 8-nitropinostrobin], the inhibition at 100 µM [2] was 55 ± 3.96%.

Work on `COc1cc2c(c(O)c1[N+](=O)[O-])C(=O)C[C@@H](c1ccccc1)O2` [Compound 23, 6-nitropinostrobin] yielded an inhibition at 100 µM [2] of 53.5 ± 4.31%.

For `COc1c([N+](=O)[O-])c(O)c2c(c1[N+](=O)[O-])O[C@H](c1ccccc1)CC2=O` [Compound 24, 6,8-dinitropinostrobin], the IC50 [2] was > 100 µM and the inhibition at 100 µM [2] was 40 ± 3.27%.

With `COc1cc(O)c2c(c1N)O[C@H](c1ccccc1)CC2=O` [Compound 25, 8-aminopinostrobin] the inhibition at 100 µM ([2]; 100 µM compound, FRET assay) was 38.2 ± 3.74% and the IC50 [2, 7] was > 100 µM.

For `COc1cc2c(c(O)c1N)C(=O)C[C@@H](c1ccccc1)O2` [Compound 26, 6-aminopinostrobin], the inhibition at 100 µM ([2]; 100 µM compound, FRET assay) was 14.7 ± 5.85% and the IC50 [2, 7] was > 100 µM.

For `COc1cc(OC(=O)c2ccccc2)c2c(c1)O[C@H](c1ccccc1)CC2=O` [Compound 27, 5-O-benzoylpinostrobin], the inhibition at 100 µM ([2]; 100 µM compound, FRET assay) was 43.4 ± 3.99% and the IC50 [2, 7] was > 100 µM.

Work on `COc1cc(OC(=O)c2ccccc2OC(C)=O)c2c(c1)O[C@H](c1ccccc1)CC2=O` [Compound 28, 5-O-(O-acetylsalicyloyl)pinostrobin] yielded an inhibition at 100 µM [2] of 89.7 ± 5.92%.

With `COc1cc(OC(=O)c2ccc(OC(C)=O)c(OC)c2)c2c(c1)O[C@H](c1ccccc1)CC2=O` [Compound 29, 5-O-(O-acetylvanilloyl)pinostrobin] the inhibition at 100 µM [2] was 84.4 ± 3.91%.

With `COc1cc(OC(=O)c2cc(OC(C)=O)c(OC(C)=O)c(OC(C)=O)c2)c2c(c1)O[C@H](c1ccccc1)CC2=O` [Compound 30, 5-O-(tri-O-acetylgalloyl)pinostrobin] the “inhibitory activity at 100 µM (in words)” value [2] was “moderate inhibitory activity” and the inhibition at 100 µM [2] was 67.1 ± 2.93%.

With `COc1cc(OC(=O)c2cc(O)c(O)c(O)c2)c2c(c1)O[C@H](c1ccccc1)CC2=O` [Compound 31, 5-O-galloylpinostrobin] the inhibition at 100 µM ([2]; 100 µM compound, FRET assay) was > 99%, the IC50 [2, 7] was 7.42 µM and the “increase of 3CL^pro inhibitory activity compared with the parent compound” value ([2]; versus parent compound) was “over 23 fold”.

For `O=C(Oc1cc(O)c2c(c1)O[C@H](c1ccccc1)CC2=O)c1ccccc1` [Compound 32, 7-O-benzoylpinocembrin], the inhibition at 100 µM [2] was 70.8 ± 2.72%.

With `CC(=O)Oc1ccccc1C(=O)Oc1cc(O)c2c(c1)O[C@H](c1ccccc1)CC2=O` [Compound 33, 7-O-(O-acetylsalicyloyl)pinocembrin] the inhibition at 100 µM [2] was 81.7 ± 0.89%.

In the case of `COc1cc(C(=O)Oc2cc(O)c3c(c2)O[C@H](c2ccccc2)CC3=O)ccc1OC(C)=O` [Compound 34, 7-O-(O-acetylvanilloyl)pinocembrin], the inhibition at 100 µM [2] is reported as 83.7 ± 3.37%.

With `CC(=O)Oc1cc(C(=O)Oc2cc(O)c3c(c2)O[C@H](c2ccccc2)CC3=O)cc(OC(C)=O)c1OC(C)=O` [Compound 35, 7-O-(tri-O-acetylgalloyl)pinocembrin] the “inhibitory activity at 100 µM (in words)” value [2] was “moderate inhibitory activity” and the inhibition at 100 µM [2] was 73 ± 1.66%.

In the case of `O=C(Oc1cc(O)c2c(c1)O[C@H](c1ccccc1)CC2=O)c1cc(O)c(O)c(O)c1` [Compound 36, 7-O-galloylpinocembrin], the inhibition at 100 µM ([2]; 100 µM compound, FRET assay) is reported as > 99% and the IC50 [2, 7] is reported as 7.53 µM.

In the case of `COc1cc(OC(=O)c2cc(OC(C)=O)c(OC(C)=O)c(OC(C)=O)c2)cc(O)c1C(=O)/C=C/c1ccccc1` [Compound 37, 4′-O-(tri-O-acetylgalloyl)cardamonin], the “inhibitory activity at 100 µM (in words)” value [2] is reported as “moderate inhibitory activity” and the inhibition at 100 µM [2] is reported as 87.2 ± 3.25%.

With `COc1cc(OC(=O)c2cc(O)c(O)c(O)c2)cc(O)c1C(=O)/C=C/c1ccccc1` [Compound 38, 4′-O-galloylcardamonin] the inhibition at 100 µM ([2]; 100 µM compound, FRET assay) was > 99% and the IC50 [2, 7] was 13.3 µM.

For `COc1c(C)c(OC(=O)c2cc(OC(C)=O)c(OC(C)=O)c(OC(C)=O)c2)c(C)c(O)c1C(=O)/C=C/c1ccccc1` [Compound 39, 4′-O-(tri-O-acetylgalloyl)-DMC], the “inhibitory activity at 100 µM (in words)” value [2] was “moderate inhibitory activity” and the inhibition at 100 µM [2] was 72 ± 4.27%.

With `COc1c(C)c(OC(=O)c2cc(O)c(O)c(O)c2)c(C)c(O)c1C(=O)/C=C/c1ccccc1` [Compound 40, 4′-O-galloyl-DMC] the inhibition at 100 µM ([2]; 100 µM compound, FRET assay) was > 99% and the IC50 [2, 7] was 6.85 µM.

With `COc1cc(OC(=O)c2cc(OC(C)=O)c(OC(C)=O)c(OC(C)=O)c2)c2c(=O)cc(-c3ccccc3)oc2c1` [Compound 41, 5-O-(tri-O-acetylgalloyl)tectochrysin] the “inhibitory activity at 100 µM (in words)” value [2] was “moderate inhibitory activity” and the inhibition at 100 µM [2] was 72.8 ± 2.43%.

For `COc1cc(OC(=O)c2cc(O)c(O)c(O)c2)c2c(=O)cc(-c3ccccc3)oc2c1` [Compound 42, 5-O-galloyltectochrysin], the inhibition at 100 µM ([2]; 100 µM compound, FRET assay) was > 99% and the IC50 [2, 7] was 20.6 µM.

With `CC(=O)Oc1cc(C(=O)Oc2cc(O)c3c(=O)cc(-c4ccccc4)oc3c2)cc(OC(C)=O)c1OC(C)=O` [Compound 43, 7-O-(tri-O-acetylgalloyl)chrysin] the “inhibitory activity at 100 µM (in words)” value [2] was “moderate inhibitory activity” and the inhibition at 100 µM [2] was 85.75 ± 0.48%.

With `O=C(Oc1cc(O)c2c(=O)cc(-c3ccccc3)oc2c1)c1cc(O)c(O)c(O)c1` [Compound 44, 7-O-galloylchrysin] the inhibition at 100 µM ([2]; 100 µM compound, FRET assay) was > 99% and the IC50 [2, 7] was 9.26 µM.

For `O=c1c2ccccc2[se]n1-c1ccccc1` [Ebselen], the IC50 [3] is given as 0.67 µM.

With `O=C(O)c1cc(O)c(O)c(O)c1` [gallic acid, reference compound] the IC50 [2] was > 100 µM and the inhibition at 100 µM [2] was 1.72 ± 12.1%.
